Measurements as given in PubChem BioAssay AID248 (DTP/NCI, 2004).
Where “and” joins values, the source holds several entries; their conditions need not be identical. Equal entries are not always repeated. Toxic doses and inconclusive results are not listed. Cut-off read from the data, not from the text of the source: active = T/C of 150% or more; inactive = T/C below 125%.

Test system: L1210 leukemia ip in BDF1 mice, survival T/C
Test: NCI In Vivo Anticancer Drug Screen. Data for tumor model L1210 Leukemia (intraperitoneal) in B6D2F1 (BDF1) mice
Conditions: endpoint: mean survival time, higher = longer survival
How it was run: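 Ratio derived from survival: compound-dosed mice over vehicle-dosed mice, all bearing a transplantable tumor.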

[1] = dose: 100.0 mg/kg/injection, schedule: Q04DX002 (ip), vehicle: Klucel (hydroxypropylcellulose) (HPC)
[2] = dose: 200.0 mg/kg/injection, schedule: Q04DX002 (ip), vehicle: Klucel (hydroxypropylcellulose) (HPC)
[3] = dose: 100.0 mg/kg/injection, schedule: Q01DX001 (ip), vehicle: saline
[4] = dose: 200.0 mg/kg/injection, schedule: Q01DX001 (ip), vehicle: saline
[5] = dose: 400.0 mg/kg/injection, schedule: Q01DX001 (ip), vehicle: saline
[6] = dose: 100.0 mg/kg/injection, schedule: Q01DX001 (ip), vehicle: saline with Tween-80
[7] = dose: 200.0 mg/kg/injection, schedule: Q01DX001 (ip), vehicle: saline with Tween-80
[8] = dose: 100.0 mg/kg/injection, schedule: Q01DX009 (ip), vehicle: saline
[9] = dose: 100.0 mg/kg/injection, schedule: Q04DX003 (ip), vehicle: saline with Tween-80
[10] = dose: 100.0 mg/kg/injection, schedule: Q01DX001 (ip), vehicle: carboxymethylcellulose (CMC)
[11] = dose: 200.0 mg/kg/injection, schedule: Q01DX001 (ip), vehicle: carboxymethylcellulose (CMC)
[12] = dose: 400.0 mg/kg/injection, schedule: Q01DX001 (ip), vehicle: carboxymethylcellulose (CMC)
[13] = dose: 50.0 mg/kg/injection, schedule: Q01DX001 (ip), vehicle: saline
[14] = dose: 100.0 mg/kg/injection, schedule: Q04DX003 (ip), vehicle: saline
[15] = dose: 200.0 mg/kg/injection, schedule: Q04DX003 (ip), vehicle: saline

Measured: T/C

Cc1cc(OC(=O)Nc2ccc(Cl)cc2)ccc1Cl
inactive: dose: 100.0 mg/kg/injection, schedule: Q01DX001 (ip), vehicle: other 103 % of control | dose: 100.0 mg/kg/injection, schedule: Q01DX009 (ip), vehicle: other 93 % of control and 100 % of control | [1] 106 % of control | dose: 100.0 mg/kg/injection, schedule: Q04DX002 (ip), vehicle: other 95 % of control and 91 % of control | dose: 100.0 mg/kg/injection, schedule: Q04DX003 (ip), vehicle: other 96 % of control | dose: 200.0 mg/kg/injection, schedule: Q01DX001 (ip), vehicle: other 96 % of control | dose: 200.0 mg/kg/injection, schedule: Q01DX009 (ip), vehicle: other 93 % of control and 95 % of control | [2] 117 % of control | dose: 200.0 mg/kg/injection, schedule: Q04DX002 (ip), vehicle: other 100 % of control and 91 % of control | dose: 200.0 mg/kg/injection, schedule: Q04DX003 (ip), vehicle: other 91 % of control | dose: 400.0 mg/kg/injection, schedule: Q01DX001 (ip), vehicle: other 96 % of control | dose: 400.0 mg/kg/injection, schedule: Q01DX009 (ip), vehicle: other 92 % of control and 86 % of control | dose: 400.0 mg/kg/injection, schedule: Q04DX002 (ip), vehicle: Klucel (hydroxypropylcellulose) (HPC) 95 % of control | dose: 400.0 mg/kg/injection, schedule: Q04DX002 (ip), vehicle: other 91 % of control and 92 % of control | dose: 400.0 mg/kg/injection, schedule: Q04DX003 (ip), vehicle: other 95 % of control

O=C1OCCN1NCc1ccc([N+](=O)[O-])o1
inactive: [3] 92 % of control | [4] 103 % of control | [5] 101 % of control

C=CCCC(=O)O
inactive: dose: 50.0 mg/kg/injection, schedule: Q01DX001 (ip), vehicle: saline with Tween-80 96 % of control | [6] 100 % of control | [7] 91 % of control

Cc1ccc2c(c1)S(=O)(=O)N(C)C(c1ccccc1)=C2
inactive: dose: 100.0 mg/kg/injection, schedule: Q01DX001 (ip), vehicle: steriod suspending solution 96 % of control | dose: 200.0 mg/kg/injection, schedule: Q01DX001 (ip), vehicle: steriod suspending solution 105 % of control | dose: 400.0 mg/kg/injection, schedule: Q01DX001 (ip), vehicle: steriod suspending solution 86 % of control

CC(CCCCC1NC(=O)NC1C)C(=O)O (centres undefined)
inactive: [3] 95 % of control | [4] 90 % of control | [5] 90 % of control

CC1=NC(C(=O)Cl)NN1c1ccccc1 (centres undefined)
inactive: dose: 25.0 mg/kg/injection, schedule: Q01DX009 (ip), vehicle: saline 101 % of control | dose: 25.0 mg/kg/injection, schedule: Q04DX003 (ip), vehicle: saline with Tween-80 96 % of control | dose: 50.0 mg/kg/injection, schedule: Q01DX009 (ip), vehicle: saline 97 % of control | dose: 50.0 mg/kg/injection, schedule: Q04DX003 (ip), vehicle: saline with Tween-80 101 % of control | [3] 93 % of control | [8] 95 % of control | [9] 98 % of control

Brc1ccc(-c2csc(Nc3nc(-c4ccc(Br)cc4)cs3)n2)cc1
inactive: [10] 102 % of control | [11] 98 % of control | dose: 250.0 mg/kg/injection, schedule: Q01DX015 (ip), vehicle: carboxymethylcellulose (CMC) 100 % of control | [12] 107 % of control | dose: 500.0 mg/kg/injection, schedule: Q01DX015 (ip), vehicle: carboxymethylcellulose (CMC) 100 % of control | dose: 750.0 mg/kg/injection, schedule: Q01DX015 (ip), vehicle: carboxymethylcellulose (CMC) 113 % of control | dose: 1000.0 mg/kg/injection, schedule: Q01DX015 (ip), vehicle: carboxymethylcellulose (CMC) 100 % of control

CCOC(=O)C1/C(=N\N=C2\c3c(nnp3N(CCOS(C)(=O)=O)CCOS(C)(=O)=O)C(C(=O)OCC)C(c3ccc(OC(C)=O)cc3)C2C(=O)OCC)c2c(nnp2N(CCOS(C)(=O)=O)CCOS(C)(=O)=O)C(C(=O)OCC)C1c1ccc(OC(C)=O)cc1 (centres undefined)
inactive: [13] 103 % of control | [3] 109 % of control | [4] 109 % of control | [5] 107 % of control

OC(CN1CCCCC1)c1ccc2oc3ccccc3c2c1 (centres undefined)
inactive: [1] 110 % of control | [2] 92 % of control

N#C/C(=C(/C#N)c1ccccc1)c1ccccc1
inactive: [6] 95 % of control | [7] 93 % of control | dose: 400.0 mg/kg/injection, schedule: Q01DX001 (ip), vehicle: saline with Tween-80 91 % of control

O=P(c1ccccc1)(N1CCCC1)N1CCCC1
inactive: [14] 95 % of control | [15] 92 % of control

O=C(S)c1ccccc1.[Pb]
inactive: dose: 100.0 mg/kg/injection, schedule: Q04DX002 (ip), vehicle: saline with Tween-80 87 % of control | dose: 200.0 mg/kg/injection, schedule: Q04DX002 (ip), vehicle: saline with Tween-80 108 % of control

Cc1cn(C2CC(O)C(CO)O2)c(=O)n(CCCc2ccccc2)c1=O (centres undefined)
inactive: dose: 50.0 mg/kg/injection, schedule: Q01DX001 (ip), vehicle: carboxymethylcellulose (CMC) 93 % of control | [10] 90 % of control | [11] 87 % of control | [12] 90 % of control

O=C(CCCC(=O)N/N=C/c1ccccc1Cl)N/N=C\c1ccccc1Cl
inactive: [13] 103 % of control | [3] 100 % of control | [4] 110 % of control | [5] 110 % of control

N=C(OC1CCCCC1)N1CCCC1
inactive: dose: 22.0 mg/kg/injection, schedule: Q01DX Z (ip), vehicle: saline 98 % of control | dose: 33.0 mg/kg/injection, schedule: Q01DX Z (ip), vehicle: saline 98 % of control | dose: 50.0 mg/kg/injection, schedule: Q01DX Z (ip), vehicle: saline 98 % of control

CC(C)COC(=O)c1ccc(NC(=O)Nc2ccccc2)cc1
inactive: dose: 100.0 mg/kg/injection, schedule: Q01DX009 (ip), vehicle: saline with Tween-80 93 % of control | [9] 92 % of control | dose: 200.0 mg/kg/injection, schedule: Q01DX009 (ip), vehicle: saline with Tween-80 88 % of control | dose: 200.0 mg/kg/injection, schedule: Q04DX003 (ip), vehicle: saline with Tween-80 88 % of control | dose: 400.0 mg/kg/injection, schedule: Q01DX009 (ip), vehicle: saline with Tween-80 97 % of control | dose: 400.0 mg/kg/injection, schedule: Q04DX003 (ip), vehicle: saline with Tween-80 87 % of control

CC(N)CN(C)C (centres undefined)
inactive: [8] 98 % of control | [14] 99 % of control | dose: 200.0 mg/kg/injection, schedule: Q01DX009 (ip), vehicle: saline 106 % of control | [15] 100 % of control | dose: 400.0 mg/kg/injection, schedule: Q04DX003 (ip), vehicle: saline 96 % of control

N#CC(c1cnc2ccccc2n1)c1cccc2ccccc12 (centres undefined)
inactive: [3] 94 % of control | [4] 92 % of control | [5] 97 % of control

CC(C)(C)NCC1CCCC1=O (centres undefined)
inactive: dose: 100.0 mg/kg/injection, schedule: Q04DX002 (ip), vehicle: gum acacia 101 % of control | dose: 200.0 mg/kg/injection, schedule: Q04DX002 (ip), vehicle: gum acacia 105 % of control

O=CN/N=C/c1cc(=O)[nH]c(=O)[nH]1
inactive: [3] 87 % of control | [4] 87 % of control | [5] 93 % of control
